Source: US7871978B2, “Bone tropic peptides” (University of Virginia Patent Foundation, priority 2004, dated 2011)

What was measured:
[1] = tested on: human bone marrow endothelial cells (HBME); assay: Peptide binding to HBME cells in culture (Avidin-FITC); set-up: key: ✓: Check marks indicate positive binding observed with FITC; −: a dash indicates a negative result
Protocol: (§1) For localization of peptide binding to cells and tissue sections, biotinylated peptides were synthesized. Fluorescein-isothiocyanate (FITC) labeled Avidin was used to localize the peptides on cells in culture and in tissue sections in vitro by epiluminescence microscopy. In addition, the biotinylated peptides were detected at concentrations as low as 1 μM in slot blots.
(§2) Bone marrow cells isolated from mouse femur were lifted with ethylenediaminetetraacetic acid (EDTA) and trypsin, resuspended, and allowed to attach on fibronectin-coated chamber slides for Avidin-FITC staining. […] The D1 cell is a multipotential mesenchymal stem-like line that was isolated from bone marrow and shown to have the characteristics of osteoprogenitor cells. This cell line has been well established and used successfully in several in vitro and in vivo studies in our laboratory. Peptide binding to human bone marrow endothelial cells (HBME) and bovine aortic endothelial cells (BAEC) in culture was also tested using the same procedure.

[2] = tested on: Bone marrow cells isolated from mouse femur; assay: Peptide binding to bone marrow cells in culture (Avidin-FITC); set-up: key to Localization of peptide binding: Marrow (cells in culture): ✓: Check marks indicate positive binding observed with FITC; −: a dash indicates a negative result
Protocol: as §1, §2

[3] = tested on: Membrane and cytosol fractions from bovine aortic endothelial cells; assay: Affinity chromatography of BAEC fractions on immobilized peptide; type: binding
Protocol: Membrane and cytosol fractions from human bone marrow endothelial cells and bovine aortic endothelial cells were prepared and used to identify the components from within these fractions that bind to the peptides using affinity chromatography). […] Cell surface nucleolin is present at higher concentrations in actively dividing cells and is down regulated in cells when they become quiescent. Nucleolin is the apparent cell surface receptor of E-coli intimin-gamma. Cell bound intimin has been proposed to trigger a host cell response similar to the extension of filipodia when cells bind to laminin. […] Table 3 provides a summary of peptide-binding partners (putative receptors) identified by affinity chromatography of cell lysates.

[4] = tested on: bone and marrow tissue sections (mouse femur, rib); assay: Biotinylated peptide binding to bone/marrow tissue sections, Avidin-FITC fluorescence; set-up: key to Localization of peptide binding: Bone/Marrow (tissue sections): ✓: Check marks indicate positive binding observed with FITC; −: a dash indicates a negative result
Protocol: Methods: Four-week old Swiss Webster mice were euthanized; the femurs were excised and decalcified in 0.25M EDTA in PBS solution for 5 days, and washed in PBS for 24 hours. The femoral shafts were obtained by cutting off the proximal and distal ends of the femur. The femoral shafts were placed in Tissue-Tek O.C.T. Compound (Sukura Finetek, Torrance, Calif.) and frozen at −20° C. overnight. Sections were cut at 10 μm serially with a cryomicrotome, rinsed with 1% BSA in PBS three times. To block non-specific reaction sections were incubated with Avidin/Biotin Blocking Kit (Vector Laboratories, Inc. Burlingame, Calif.) according to the manufacturer's instructions. Following another rinse with PBS, 150 μl 10 mM solution of each biotinylated peptide (L1, L2, L7, R1, R8) was added to the slides and incubated for 1 hour at room temperature. In negative controls, only PBS was added. After rewashes with 1% BSA, 150 μl of 1:50,000 dilution of Avidin-FITC was added to each slide and incubated overnight at 4° C.
The sections were washed with 1% BSA in PBS and mounted with Vectashield (Vector Laboratories Inc., Burlingame, Calif.). Fluorescence was visualized using a Nikon eclipse E600 microscope (Nikon, Melville, N.Y.) equipped with a 535 nm wavelength fluorescein filter. Images were obtained using a Sony DKC-5000 digital camera (Sony Electronics Inc.) and processed with Adobe Photoshop software (Adobe Systems Incorporated, San Jose, Calif.).
as §1
Cryosections of decalcified femurs harvested from 4 week BALB/c mice were incubated with biotinylated peptide and Avidin-FITC. […] The distribution of fluorescence throughout the marrow was uneven. […] In control slides incubated with PBS without peptide, none of the cells could be detected by fluorescence (not shown). […]

bone and bone marrow = assay: In vivo biopanning with 12-mer peptide phage display library; set-up: species or system BALB/c mice
Source text: The Ph.D.-12 Phage Display Peptide Library Kit (New England Biolabs, Beverly, Mass.) used in this study is based on a combinatorial library of random peptide 12-mers fused to a minor coat protein (pIII). […] The peptide is followed by a short spacer of four amino acid residues, the first three residues of which are glycine and the fourth of which is serine, and then the wild-type III sequence. The library consists of approximately 2.7×10^9 electroporated sequences, amplified once to yield approximately 55 copies of each sequence.
For in vivo biopanning, BALB/c mice 8 weeks of age were injected 3.4×10^10 pfu of phage into the heart. The animals were euthanized after 5 minutes, and the tissues (bone, bone marrow, kidney, liver, and spleen) were collected for analysis. The bound phage was eluted according the manufacturer's instructions. The eluted phage was titered, amplified, purified, and injected again at the same concentration.
The frequency of each peptide in bone and bone marrow was compared with its location in other tissues such as liver, kidney, lung, spleen, and brain. Thirteen unique peptide sequences eluted from bone and marrow were identified were identified by sequencing phage DNA. The peptides were synthesized using the polystyrene solid support on a Protein Technologies Symphony Multiple Channel Synthesizer.

[5] = tested on: bovine aortic endothelial cells (BAEC); assay: Peptide binding to BAEC in culture (Avidin-FITC); set-up: key: ✓: Check marks indicate positive binding observed with FITC; −: a dash indicates a negative result
Protocol: as §1, §2

[6] = tested on: Unicortical femoral defects; assay: Peptide-mediated osteogenesis in cortical bone defects (Example 8); type: in vivo, Fisher 344 rats; conditions: 100 mM peptide in gelfoam, two weeks postoperatively, versus gelfoam+PBS
Protocol: In an in vivo study, all 13 peptides at a concentration of 100 mM were tested for their ability to potentiate osteogenesis. A gelfoam cylinder 1.5 mm in diameter 2 mm in length was used as carrier for the peptides. Unicortical femoral defects 1.5 mm in diameter were created bilaterally in Fisher 344 rats; the left femoral defect was filled with gelfoam+PBS (Control), and the right femur with gelfoam+peptide. The samples were harvested and examined two weeks postoperatively. To examine the effect of peptide concentration on cortical bone regeneration, peptide L7 (SEQ ID NO:5) was used at 1, 5, and 20 mM. […] The time course of cortical bone repair with 20 mM L7 was examined at 5, 10, 15, and 20 days.

[7] = BALB/c mouse femur cryosections, biotinylated peptide
[8] = Swiss Webster mouse femur cryosections, 10 mM biotinylated peptide

Localization of peptide binding: Bone/Marrow (tissue sections) ([4]; FITC): ✓
Substance: SER-TYR-SER-GLN-MET-ASP-PRO-PRO-ARG-SER-LEU-PRO-GLY-GLY-GLY-SER (SYSQMDPPRSLPGGGS; listed as Homo sapiens) [Peptide R8]
Localization of peptide binding: HBME [1]: ✓ | Localization of peptide binding: Marrow (cells in culture) ([2]; FITC): ✓ | Binding to adherent cells from bone marrow blowouts ([2]; fibronectin-coated chamber slides, Avidin-FITC staining): showed detectable binding | Binding partner from BAEC lysates ([3]; biotinylated peptide immobilized on avidin-agarose): vimentin was found to bind | Identification of binding partners by affinity chromatography: BAEC ([3]; cell lysates): ✓Vimentin | Cell shape preferentially recognized by peptide [4, 7]: recognized the round cells preferentially | Extent of marrow cells detected by fluorescence [4, 7]: did not detect as many cells | Cell shape preferentially recognized by peptide [4, 8]: recognized the round cells preferentially | Extent of marrow cells detected by fluorescence [4, 8]: did not detect as many cells | PERCENT FREQUENCY (bone and bone marrow; phage eluted from bone and bone marrow): 24.1% | PHAGE SEQUENCE FREQUENCY (number of times the sequence was found in a group of plaques) (bone and bone marrow; phage eluted from bone and bone marrow after repeated rounds): 7/29 | Localization of peptide binding: BAEC [5]: ✓ | Effectiveness at stimulating osteogenesis and cortical bone repair [6]: most effective at stimulating osteogenesis and cortical bone repair
